The results in this text go back to patent US8691761B2, “Somatostatin receptor 2 antagonists” (priority 2006, dated 2014).

By IC50 is commonly meant the concentration needed to halve the response being measured.

What all share (assay): Receptor autoradiography, displacement of 125I-[Leu8,D-Trp22,Tyr25]-SRIF-28 from membrane pellet sections
Holding throughout (type): binding
(In a radioligand displacement assay an active substance lowers the binding of a labelled ligand.)

For test [1], the target named is T1, hSSTR4 (Homo sapiens, UniProt P31391).
T1 construct: expressed in transfected cells; host or cells: CHO-K1 or CCL39 cells
The protocol: (§1) Generally, recombinant cells expressing the receptor are washed and homogenized to prepare a crude protein homogenate in a suitable buffer. In a typical assay, an amount of protein from the cell homogenate is placed into a small volume of an appropriate assay buffer at an appropriate pH. Candidate substances, such as potential SRIF agonists and antagonists, are added to the admixture in convenient concentrations, and the interaction between the candidate substance and the receptor polypeptide is monitored.
(§2) In vitro Bioassay: The effects of the various somatostatin analogs were tested in vitro for their ability to bind to isolated cloned receptors expressed on CHO-K1 cells and CCL39 cells. The molecular cloning of the genes encoding multiple somatostatin receptor subtypes permitted the individual expression of these receptors in mammalian cells and the characterization of their respective pharmacological profiles.
(§3) CHO-K1 cells were grown in Ham's F-12 medium, and CCL39 cells were grown in Dulbecco's modified Eagle's medium/Ham's F-12(1:1) mix, supplemented with 10% fetal bovine serum, 100 U/ml penicillin and 100 μg/ml streptomycin, in humidified air containing 5% CO2 at 37° C. Cells were washed twice with and scraped into ice-cold 0.05 M Tris-HCl (pH 7.4), collected by centrifugation, and homogenized using a rotor/stator/system in the same buffer. After centrifugation at 120 g for 5 min at 4° C., the supernatant was collected and centrifuged again at 48,000 g for 30 min at 4° C. The resulting pellet was resuspended in ice-cold Tris buffer, transferred into a microfuge tube, and centrifuged at 20,000 g for 15 min at 4° C. After withdrawal of the supernatant, the membrane pellet was stored at −80° C.
(§4) Receptor autoradiography was performed on 20 μm thick cryostat sections of the membrane pellets, mounted on microscope slides, and then stored at −20° C. […] Increasing concentrations of the unlabeled peptide were used ranging from 0.1-1000 nM. […] IC50 values were calculated after quantification of the data using a computer-assisted image processing system as known in this art.
(§5) The numbers in parentheses indicate the number of times the particular binding test was carried out.
(§6) Receptor autoradiography. Cell membrane pellets were prepared as previously described, and stored at −80° C. Receptor autoradiography was performed on 20-μm thick cryostat (Microm HM 500, Walldorf, Germany) sections of the membrane pellets, mounted on microscope slides, and then stored at −20° C. […] After a brief dip in distilled water to remove excess salts, the sections were dried quickly and exposed for 1 week to Kodak BioMax MR film. IC50 values were calculated after quantification of the data using a computer-assisted image processing system as described previously. […] (Reubi, J. C. “In vitro identification of vasoactive intestinal peptide receptors in human tumors: Implications for tumor imaging.” J. Nucl. Med. 1995, 36, 1846-1853).
(§7) To investigate their ssts binding properties, the peptides were tested for their ability to bind to cryostat sections from membrane pellets of cells expressing the five human ssts (Table 3).

In test [2] the target is T2, hSSTR1 (Homo sapiens, UniProt P30872).
T2 construct: expressed in transfected cells; host or cells: CHO-K1 or CCL39 cells
The settings on record: Table 3; mean ± SEM when N ≧ 3; read-out: sst1 binding affinity (IC50). The protocol:
as §1, §2, §3, §4, §5, §6, §7

Test [3] deals with T3, hSSTR5 (Homo sapiens, UniProt P35346).
T3 construct: expressed in transfected cells; host or cells: CHO-K1 or CCL39 cells
The settings on record: Table 3; mean ± SEM when N ≧ 3; read-out: sst5 binding affinity (IC50). The protocol: as §1, §2, §3, §4, §5, §6, §7

In test [4] the target is T4, hSSTR2 (Homo sapiens, UniProt P30874).
T4 construct: expressed in transfected cells; host or cells: CHO-K1 or CCL39 cells
The settings on record: for IC50: Table 3, mean ± SEM when N ≧ 3. The protocol:
as §1, §2, §3, §4, §5, §6, §7

The target of test [5] is T5, hSSTR3 (Homo sapiens, UniProt P32745).
T5 construct: expressed in transfected cells; host or cells: CHO-K1 or CCL39 cells
As to conditions: Table 3; mean ± SEM when N ≧ 3; read-out: sst3 binding affinity (IC50). The protocol:
as §1, §2, §3, §4, §5, §6, §7

Where [6] appears, read: Table 3, mean ± SEM when N ≧ 3, read-out: sst4 binding affinity (IC50).
[7] abbreviates: read-out: sst2 binding affinity (IC50).

SMILES strings stand for the structures. Where two headings read alike, the source gives them in different places. Bridge positions count the residues as written; N and C are the ends. Square brackets hold non-standard residues; d marks the D form. Peptide text beside a SMILES is read from it. * marks the point of attachment. ξ: configuration not given here. Phe(4-NO2) = N[C@@H](Cc1ccc([N+](=O)[O-])cc1)C(=O)O; dPhe(4-NHCONH2) = NC(=O)Nc1ccc(C[C@@H](N)C(=O)O)cc1; Phe(4-NHCONH2) = NC(=O)Nc1ccc(C[C@H](N)C(=O)O)cc1; Trp(5-F) = N[C@@H](Cc1c[nH]c2ccc(F)cc12)C(=O)O; Phe(4-Cl) = N[C@@H](Cc1ccc(Cl)cc1)C(=O)O; ξDihydroorotoyl = O=C1CC(C(=O)*)NC(=O)N1; Phe(4-NH2) = Nc1ccc(C[C@H](N)C(=O)O)cc1; X1 = NC(=O)N[C@@H](Cc1ccc(Cl)cc1)C(=O)*; 2Nal = N[C@@H](Cc1ccc2ccccc2c1)C(=O)O Where only a bound is given, the exact number is not on record here.

T5 sequence (P32745 whole entry): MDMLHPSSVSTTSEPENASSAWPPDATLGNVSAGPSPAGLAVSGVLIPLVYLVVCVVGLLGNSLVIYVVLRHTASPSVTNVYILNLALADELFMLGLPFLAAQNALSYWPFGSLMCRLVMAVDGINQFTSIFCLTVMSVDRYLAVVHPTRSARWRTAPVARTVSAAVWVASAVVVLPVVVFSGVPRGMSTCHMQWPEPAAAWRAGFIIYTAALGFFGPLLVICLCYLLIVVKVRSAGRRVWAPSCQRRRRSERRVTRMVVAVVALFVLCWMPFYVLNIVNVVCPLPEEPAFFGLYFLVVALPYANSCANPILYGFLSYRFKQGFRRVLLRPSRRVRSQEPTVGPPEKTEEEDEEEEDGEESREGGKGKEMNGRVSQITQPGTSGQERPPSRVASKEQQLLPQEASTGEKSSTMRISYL
T2 sequence (P30872 whole entry): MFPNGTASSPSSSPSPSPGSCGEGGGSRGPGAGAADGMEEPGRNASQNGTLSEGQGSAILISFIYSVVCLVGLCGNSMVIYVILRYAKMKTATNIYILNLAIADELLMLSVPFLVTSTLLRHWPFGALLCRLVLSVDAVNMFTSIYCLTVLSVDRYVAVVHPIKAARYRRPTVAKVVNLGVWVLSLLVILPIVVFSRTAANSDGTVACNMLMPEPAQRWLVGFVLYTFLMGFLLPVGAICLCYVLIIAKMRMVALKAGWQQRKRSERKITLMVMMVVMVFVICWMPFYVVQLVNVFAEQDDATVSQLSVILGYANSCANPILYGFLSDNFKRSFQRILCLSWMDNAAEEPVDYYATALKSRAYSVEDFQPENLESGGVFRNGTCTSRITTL
T1 sequence (P31391 whole entry): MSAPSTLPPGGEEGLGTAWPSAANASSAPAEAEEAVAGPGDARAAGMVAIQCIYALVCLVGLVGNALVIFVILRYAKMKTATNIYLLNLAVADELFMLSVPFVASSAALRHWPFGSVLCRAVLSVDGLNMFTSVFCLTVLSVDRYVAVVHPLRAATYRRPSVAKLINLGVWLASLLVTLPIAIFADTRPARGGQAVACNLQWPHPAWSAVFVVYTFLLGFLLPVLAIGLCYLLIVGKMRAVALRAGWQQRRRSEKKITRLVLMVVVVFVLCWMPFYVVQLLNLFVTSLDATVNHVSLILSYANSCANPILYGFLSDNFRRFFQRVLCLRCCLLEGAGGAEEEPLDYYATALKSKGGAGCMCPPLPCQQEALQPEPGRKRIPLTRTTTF
T4 sequence (P30874 whole entry): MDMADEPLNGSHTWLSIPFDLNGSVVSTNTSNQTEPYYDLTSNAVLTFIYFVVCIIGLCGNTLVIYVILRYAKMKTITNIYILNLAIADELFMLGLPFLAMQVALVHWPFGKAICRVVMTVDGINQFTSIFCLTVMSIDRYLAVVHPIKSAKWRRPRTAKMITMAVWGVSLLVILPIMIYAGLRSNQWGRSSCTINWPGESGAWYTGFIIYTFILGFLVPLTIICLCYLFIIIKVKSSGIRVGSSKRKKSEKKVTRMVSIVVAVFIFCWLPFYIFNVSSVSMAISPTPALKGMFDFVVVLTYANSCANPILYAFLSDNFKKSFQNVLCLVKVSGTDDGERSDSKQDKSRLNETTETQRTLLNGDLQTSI
T3 sequence (P35346 whole entry): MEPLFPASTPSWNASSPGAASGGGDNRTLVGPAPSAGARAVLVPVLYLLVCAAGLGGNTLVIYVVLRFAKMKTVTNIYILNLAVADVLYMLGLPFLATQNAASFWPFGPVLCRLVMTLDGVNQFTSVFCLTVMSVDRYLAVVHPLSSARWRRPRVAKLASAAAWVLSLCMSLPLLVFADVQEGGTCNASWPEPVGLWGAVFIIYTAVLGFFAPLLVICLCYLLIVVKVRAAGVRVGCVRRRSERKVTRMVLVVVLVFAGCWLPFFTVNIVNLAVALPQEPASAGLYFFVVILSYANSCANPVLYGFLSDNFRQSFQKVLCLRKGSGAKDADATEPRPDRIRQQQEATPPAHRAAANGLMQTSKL

On to `C[C@@H](O)[C@@H]1NC(=O)[C@H](CCCCN)NC(=O)[C@@H](Cc2ccc(NC(N)=O)cc2)NC(=O)[C@H](Cc2ccc(NC(=O)C3CC(=O)NC(=O)N3)cc2)NC(=O)[C@H](NC(=O)[C@@H](N)Cc2ccc([N+](=O)[O-])cc2)CSSC[C@@H](C(=O)N[C@@H](Cc2ccc3ccccc3c2)C(N)=O)NC1=O` (stereo partly drawn) [compound 6, H2N-pNO2Phe-c[DCys-Aph(Hor)-DAph(Cbm)-Lys-Thr-Cys]-2Nal-NH2] (H-[Phe(4-NO2)][dC][Phe(4-NH2)](ξDihydroorotoyl)[dPhe(4-NHCONH2)]KTC[2Nal]-NH2; disulfide 2-7), for which the IC50 in test [1] (setting [6]), in test [2] and in test [3] was above 1000 nM throughout.
For `C[C@@H](O)[C@@H]1NC(=O)[C@H](CCCCN)NC(=O)[C@@H](Cc2c[nH]c3ccccc23)NC(=O)[C@@H](N(C)C(=O)c2ccccc2)NC(=O)[C@H](NC(=O)[C@@H](N)Cc2ccc(Cl)cc2)CSSC[C@@H](C(=O)N[C@@H](Cc2ccc3ccccc3c2)C(N)=O)NC1=O` [compound 10, H2N-Cpa-c[DCys-D-Agl(NMe.benzoyl)-DTrp-Lys-Thr-Cys]-2Nal-NH2], the 50% inhibitory concentration (IC50) in test [1] was 116 ± 47 nM; in test [2], above 1000 nM; in test [4] (sst2 binding affinity (IC50)), 158 ± 37 nM; in test [5], 102 ± 10 nM; in test [3], 728 ± 272 nM.
`CC(C)C[C@@H]1NC(=O)[C@H](NC(=O)[C@@H](N)Cc2ccc(Cl)cc2)CSSC[C@@H](C(=O)N[C@@H](Cc2ccc3ccccc3c2)C(N)=O)NC(=O)[C@H]([C@@H](C)O)NC(=O)[C@H](CCCCN)NC(=O)[C@@H](Cc2c[nH]c3ccccc23)NC1=O` [compound 11, H2N-Cpa-c[DCys-Leu-DTrp-Lys-Thr-Cys]-2Nal-NH2] (H-[Phe(4-Cl)][dC]L[dW]KTC[2Nal]-NH2; disulfide 2-7): the IC50 in test [1] (setting [6]) is 908 ± 138 nM; in test [2], above 1000 nM; in test [4] (setting [7]), 58 ± 21 nM; in test [5], 340 ± 77 nM; in test [3], 657 ± 299 nM. Further, the “loss of binding affinity for sst2 as compared to 7” value in test [4] is 10 fold.
In the case of `C[C@@H](O)[C@@H]1NC(=O)[C@H](CCCCN)NC(=O)[C@@H](Cc2c[nH]c3ccccc23)NC(=O)[C@H](Cc2ccc(NC(N)=O)cc2)NC(=O)[C@H](NC(=O)[C@H](Cc2ccc(Cl)cc2)NC(N)=O)CSSC[C@@H](C(=O)N[C@@H](Cc2ccc3ccccc3c2)C(N)=O)NC1=O` [compound 13, Cbm-Cpa-c[DCys-Aph(Cbm)-DTrp-Lys-Thr-Cys]-2Nal-NH2] (X1-[dC][Phe(4-NHCONH2)][dW]KTC[2Nal]-NH2; disulfide 1-6), the IC50 in test [1] (setting [6]) is 136 ± 7.5 nM; in test [2], above 1000 nM; in test [4] (setting [7]), 23 ± 4.3 nM; in test [5], 54 ± 15 nM; in test [3], 111 ± 17 nM.
Taken in the same sequence, the figures for `C[C@@H](O)[C@@H]1NC(=O)[C@H](CCCCN)NC(=O)[C@@H](Cc2c[nH]c3ccccc23)NC(=O)[C@H](Cc2ccc(NC(N)=O)cc2)NC(=O)[C@H](NC(=O)[C@@H](N)Cc2ccc(Cl)cc2)CSSC[C@@H](C(=O)N[C@@H](CC2CCCCC2)C(N)=O)NC1=O` [compound 18, H2N-Cpa-c[DCys-Aph(Cbm)-DTrp-Lys-Thr-Cys]-Cha-NH2] were above 1000 nM, above 1000 nM, 4.1 ± 0.9 nM, 255 ± 79 nM and 247 ± 66 nM.
Turning to `C[C@@H](O)[C@@H]1NC(=O)[C@H](CCCCN)NC(=O)[C@@H](Cc2c[nH]c3ccccc23)NC(=O)[C@H](Cc2ccc(NC(N)=O)cc2)NC(=O)[C@H](NC(=O)[C@@H](N)Cc2ccc(Cl)cc2)CSSC[C@@H](C(=O)N[C@H](Cc2ccc(NC(N)=O)cc2)C(N)=O)NC1=O` [compound 20, H2N-Cpa-c[DCys-Aph(Cbm)-DTrp-Lys-Thr-Cys]-DAph(Cbm)-NH2], the IC50 in test [1] (setting [6]) is 800 ± 295 nM; in test [2], above 1000 nM; in test [4] (setting [7]), 5.4 nM; in test [5], 328 ± 69 nM; in test [3], 191 ± 49 nM.
On to `C[C@@H](O)[C@@H]1NC(=O)[C@H](CCCCN)NC(=O)[C@@H](Cc2c[nH]c3ccccc23)NC(=O)[C@H](Cc2ccc(NC(N)=O)cc2)NC(=O)[C@H](NC(=O)[C@@H](N)Cc2ccc(Cl)cc2)CSSC[C@@H](C(=O)N[C@@H](Cc2ccc(NC(N)=O)cc2)C(N)=O)NC1=O` [compound 21, H2N-Cpa-c[DCys-Aph(Cbm)-DTrp-Lys-Thr-Cys]-Aph(Cbm)-NH2], for which the IC50 in test [1] (setting [6]) is 551 ± 151 nM; in test [2], above 1000 nM; in test [4] (setting [7]) it was 15 nM; in test [5], 336 ± 46 nM; in test [3] it was 560 ± 144 nM.
In the case of `C[C@@H](O)[C@@H]1NC(=O)[C@H](CCCCN)NC(=O)[C@@H](Cc2c[nH]c3ccccc23)NC(=O)[C@H](Cc2ccc(NC(N)=O)cc2)NC(=O)[C@H](NC(=O)[C@@H](N)Cc2ccc(Cl)cc2)CSSC[C@@H](C(=O)N[C@H](Cc2ccc(NC(N)=O)cc2)C(=O)NCC(=O)O)NC1=O` [compound 22, H2N-Cpa-c[DCys-Aph(Cbm)-DTrp-Lys-Thr-Cys]-DAph(Cbm)-GlyOH] (H-[Phe(4-Cl)][dC][Phe(4-NHCONH2)][dW]KTC[dPhe(4-NHCONH2)]G-OH; disulfide 2-7), the IC50 in test [1] (setting [6]) is above 1000 nM; in test [2] it was above 1000 nM; in test [4] (setting [7]), 52 ± 4.7 nM; in test [5], 661 ± 115 nM; in test [3], 810 ± 200 nM.
Consider `CONC(=O)Nc1ccc(C[C@@H]2NC(=O)[C@H](NC(=O)[C@@H](N)Cc3ccc(Cl)cc3)CSSC[C@@H](C(=O)N[C@@H](Cc3ccc4ccccc4c3)C(N)=O)NC(=O)[C@H]([C@@H](C)O)NC(=O)[C@H](CCCCN)NC(=O)[C@@H](Cc3c[nH]c4ccccc34)NC2=O)cc1` [compound 23, H2N-Cpa-c[DCys-Aph(CONH—OCH3)-DTrp-Lys-Thr-Cys]-2Nal-NH2], for which the IC50 in test [1] (setting [6]) is 883 ± 174 nM; in test [2], above 1000 nM; in test [4] (setting [7]), 9.3 ± 0.9 nM; in test [5] it was 157 ± 49 nM; in test [3], 313 ± 35 nM.
For `C[C@@H](O)[C@@H]1NC(=O)[C@H](CCCCN)NC(=O)[C@@H](Cc2c[nH]c3ccccc23)NC(=O)[C@H](Cc2ccc(NC(=O)NO)cc2)NC(=O)[C@H](NC(=O)[C@@H](N)Cc2ccc(Cl)cc2)CSSC[C@@H](C(=O)N[C@@H](Cc2ccc3ccccc3c2)C(N)=O)NC1=O` [compound 24, H2N-Cpa-c[DCys-Aph(CONH—OH)-DTrp-Lys-Thr-Cys]-2Nal-NH2] the same measures were 813 ± 152 nM, above 1000 nM, 9.3 ± 1.4 nM, 120 ± 45 nM and 426 ± 189 nM.
As for `C[C@@H](O)[C@@H]1NC(=O)[C@H](CCCCN)NC(=O)[C@H](Cc2c[nH]c3ccc(F)cc23)NC(=O)[C@H](Cc2ccc(NC(N)=O)cc2)NC(=O)[C@H](NC(=O)[C@@H](N)Cc2ccc(Cl)cc2)CSSC[C@@H](C(=O)N[C@@H](Cc2ccc3ccccc3c2)C(N)=O)NC1=O` [compound 26, H2N-Cpa-c[DCys-Aph(Cbm)-5F-Trp-Lys-Thr-Cys]-2Nal-NH2] (H-[Phe(4-Cl)][dC][Phe(4-NHCONH2)][Trp(5-F)]KTC[2Nal]-NH2; disulfide 2-7), the IC50 is 905 ± 132 nM in test [1] (setting [6]); above 1000 nM in test [2]; 23 ± 3.7 nM in test [4] (setting [7]); 90 ± 11 nM in test [5]; 618 ± 248 nM in test [3].
